Laboratory results: PubChem BioAssay AID435015 (The Scripps Research Institute Molecular Screening Center, 2010)
Active and inactive are the calls of the source. The rule behind the calls is not given here.

Tested on: Vero E6 cytotoxicity, luminescence viability
Experiment: PubChem AID 435015
Settings: at 20 µM; hits give high values

`CC(C)(C)NC(=O)C(c1cccnc1)N(C(=O)c1ccco1)c1ccc(C(C)(C)C)cc1` (stereo unspecified) was tested, and the inhibition was 23% (inactive).
